Data as given in PMC5963010, “Characterization of a novel thermostable and xylose-tolerant GH 39 β-xylosidase from Dictyoglomus thermophilum” (BMC Biotechnology, 2018).

Target: T1, Xln-DT (Dictyoglomus thermophilum, UniProt B5YB78)
T1 construct: gene DICTH_1792; full-length ORF, 502 aa (1509 bp), in pET-20b (BamHI/XhoI), E. coli BL21(DE3); tag not described
T1 sequence (B5YB78 1-502): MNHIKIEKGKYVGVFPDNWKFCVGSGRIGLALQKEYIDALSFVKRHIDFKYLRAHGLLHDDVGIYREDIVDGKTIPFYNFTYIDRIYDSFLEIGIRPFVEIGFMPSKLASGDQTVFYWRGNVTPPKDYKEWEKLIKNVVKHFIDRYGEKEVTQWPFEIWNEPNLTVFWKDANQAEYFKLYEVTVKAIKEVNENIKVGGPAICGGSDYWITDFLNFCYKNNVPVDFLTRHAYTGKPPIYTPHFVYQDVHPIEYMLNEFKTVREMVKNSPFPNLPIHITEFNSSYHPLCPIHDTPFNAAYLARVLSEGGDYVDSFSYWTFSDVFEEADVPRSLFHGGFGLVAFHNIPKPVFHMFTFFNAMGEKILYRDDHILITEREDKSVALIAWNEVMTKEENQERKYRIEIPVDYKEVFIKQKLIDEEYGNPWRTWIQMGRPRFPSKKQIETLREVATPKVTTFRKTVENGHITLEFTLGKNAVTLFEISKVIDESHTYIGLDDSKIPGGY
Test: pNPX hydrolysis assay with added xylose
Type: biochemical

OC1OC[C@@H](O)[C@H](O)[C@H]1O (stereo partly shown) [xylose]
inhibition at 3 M: 40%
